Where “and” joins values, the source holds several entries; their conditions need not be identical. Identical values can stand only once. Like-named read-outs stand apart in the source and are kept apart here. Values belong to the compound of their own block, whether it stands above or below them. Where a SMILES comes first, the peptide text is derived from it.
Legend:
[1] = Stability of sweeteners in FLEET PHOSPHO-SODA (Example 1)
Procedure: While it is possible to add the sweetener and/or flavoring a short time before consumption of a phosphate salt bowel cleanser and retain at least a portion of the palatability benefits, one goal of the present bowel cleansing compositions is to provide stable liquids having increased palatability. Thus, numerous sweeteners and flavorings were tested for stability in phosphate salt bowel cleanser.
Sucrose, Saccharin, Sucralose, Aspartame, Ace-K, Thaumatin (Talin), Neohesperidine Dihydrochalcone (NHDC), and Trehalose were tested for stability in FLEET® PHOSPHO-SODA®.

[2] = Taste tests to determine equivalent sweetness of sweeteners in a salty liquid (Example 4); assay type: in vivo, human
Procedure: Before a preferred sweetener for use in salty liquids could be determined, the amount of each sweetener required to provide an equivalent sweetness was determined. Multiple taste tests were performed comparing various concentrations of Sucralose, Ace-K, the 5:1 Ace-K/Sucralose blend, Saccharin, and sucrose in a salty liquid to determine an equivalent […].

[3] = Sweetener concentration preference in diluted phosphate salt bowel cleanser, about 35 testers (Example 10); assay type: in vivo, human; details: for preferred sweetener concentration to decrease saltiness: in the phosphate salt bowel cleanser; for Average rating: scale 1 to 4, 4 highly preferred
Procedure: To confirm the correlation of FIG. 1 in a bowel cleanser with multiple sweeteners, approximately 35 testers were asked to select the most palatable solution from five possibilities. Each of the five solutions included 60 mL of the phosphate salt bowel cleanser from Example 2 in 355 mL of water. This solution has an equivalent saltiness to the 2% NaCI/water solution of Example 9. The first of the five solutions lacked any sweetener, while an increasing concentration of sweetener was added to the remaining four. Tests were performed using Sucralose, the 5:1 Ace-K/Sucralose blend, Ace-K, or Saccharin as the sweetener.
Tables 8, 9, 10, and 11, below, present the average test data for each sweetener, respectively.
The sweetener concentration for each data point corresponds to those in Tables 8 through 11, above, with higher values on the X-axis corresponding to higher sweetener concentrations.

[4] = considered to be; cited from earlier work
[5] = Sweetener preference in diluted phosphate salt bowel cleanser, forty test subjects (Example 5); assay type: in vivo, human; details: scale 1 to 4, 60 mL phosphate salt bowel cleanser in 355 mL water
Procedure: Each solution was prepared by diluting 60 mL of the phosphate salt bowel cleanser from Example 2 in 355 mL of water and using either 0.05% Ace-K, 0.05% Sucralose, 0.08% saccharin, 0.05% of a 5:1 Ace-K/Sucralose blend, or 15% sucrose as the sweetener.

[6] = Preference comparison of sweetened and unsweetened NaCl solutions and phosphate salt bowel cleansers (Example 8); assay type: in vivo, human
Source text: To establish the reliability of the NaCI to bowel cleanser comparison, test subjects were asked to taste sweetened and unsweetened NaCI solutions and sweetened and unsweetened phosphate salt bowel cleansers. In this comparison of the sweetened and unsweetened NaCI solutions, out of 19 test subjects, 17 preferred the 2% NaCI solution that included 0.13% Sucralose. Furthermore, in the preference comparison of the sweetened and unsweetened phosphate salt bowel cleanser, 18 out of 20 test subjects preferred the phosphate salt bowel cleanser including 0.13% Sucralose. Therefore, the palatability increase provided by the Sucralose was similarly observed for the 2% NaCI/water solution and the phosphate salt bowel cleanser.

[7] = Preferred Sucralose concentration in water, 0.4% NaCl and 2% NaCl, approximately 40 testers (Example 9); assay type: in vivo, human; details: for Preferred Sucralose Concentration (wt %): correlation line of FIG. 1
Source text: To determine the preferred concentration of Sucralose to reduce the saltiness of bowel cleansers having different perceived saltiness, varying concentrations of Sucralose were tasted in water, a 0.4% NaCI water solution, and a 2% NaCI water solution. For each solution, approximately 40 testers were asked to rate four different concentrations of Sucralose. Tables 4, 5, and 6, below, present the average test data for the water, 0.4% NaCI water solution, and 2% NaCI water solution, respectively.
FIG. 1 plots the increasing salinity of the solutions from Tables 4, 5, and 6 against the preferred concentration of Sucralose required to reduce the saltiness and increase the palatability of each solution. The graph establishes that as saltiness increases, the amount of sweetener that should be added to improve palatability linearly increases (R^2=0.997). The X-axis NaCI and the Y-axis Sucralose concentrations represented by the correlation line from FIG. 1 are presented below in Table 7.

[8] = Mean acceptability ratings (Likert) of sweetener systems in phosphate salt bowel cleanser, 19 test subjects (Example 6); assay type: in vivo, human; details: at the same 0.38% concentration; systems with Ace-K
Procedure: A comparison between Saccharin/Ace-K and Sucralose/Ace-K was performed to determine which of these two sweetener systems most improved the palatability of a salty bowel cleanser. Table 3, below, provides the mean acceptability ratings for 19 test subjects who tasted 5:1 Saccharin/Ace-K and 5:1 Sucralose/Ace-K sweetener systems in 60 mL of the phosphate salt bowel cleanser from Example 2 in 355 mL of water.

[9] = Preferred Sucralose concentration in PEG based bowel cleanser NuLytely, thirty test subjects (Example 11); assay type: in vivo, human; details: for rating of individual test subject / rating, Average: scale 1 to 5, 5 highly preferred, PEG based bowel cleanser
Source text: To determine the preferred concentration of Sucralose to reduce the saltiness of a PEG based bowel cleanser, test subjects were asked to taste unsweetened and three sweetened solutions of NuLytely®. NuLytely® is an aqueous liquid including approximately 420 g of 3350 PEG, 5.72 g of sodium bicarbonate, 11.2 g of NaCI, and 1.48 g of KCI. It has a similar perceived saltiness to the similar GoLytely®, which is an aqueous liquid including approximately 236 g of 3350 PEG, 22.74 g of sodium sulfate, 6.74 g of sodium bicarbonate, 5.86 g of NaCI, and 2.97 g of KCI. Either solution has a saltiness that approximates the 0.4% NaCl/water solution of Example 9.
Each of thirty test subjects was asked to rate the four solutions on a scale of 1 to 5 with 5 being highly preferred and 1 being least preferred. The first solution included no sweetener. The second, third, and fourth solutions included 0.01%, 0.025%, or 0.05% (w/w) of Sucralose, respectively.

Compound: COc1ccc(CCC(=O)c2c(O)cc(O[C@@H]3O[C@H](CO)[C@@H](O)[C@H](O)[C@H]3O[C@@H]3O[C@@H](C)[C@H](O)[C@@H](O)[C@H]3O)cc2O)cc1O [Neohesperidine Dihydrochalcone (NHDC), Neohesperidine Dihydrochalcone]
stability in FLEET PHOSPHO-SODA ([1]; sweetener in phosphate salt laxative solution): effectiveness diminished over time

Compound: O=C1NS(=O)(=O)c2ccccc21 [Saccharin]
sweetener concentration providing an equivalent sweetness [2]: 0.083%
preferred sweetener concentration to decrease saltiness [3]: about 0.0832%
Average rating ([3]; Saccharin 0.0208 % (w/w), phosphate salt bowel cleanser in water): 2.29
Average rating ([3]; Saccharin 0.0416 % (w/w), phosphate salt bowel cleanser in water): 2.47
Average rating ([3]; Saccharin 0.0832 % (w/w), phosphate salt bowel cleanser in water): 2.47
Average rating ([3]; Saccharin 0.1664 % (w/w), phosphate salt bowel cleanser in water): 1.97
sweetness relative to sucrose / sugar [4]: about 200 times
stability in FLEET PHOSPHO-SODA [1]: acceptable stability
average preference value ([5]; 0.08% sweetener): 2.5

Compound: Thaumatin [Thaumatin (Talin)]
stability in FLEET PHOSPHO-SODA [1]: effectiveness diminished over time

Compound: CC1=CC(=O)NS(=O)(=O)O1 [Ace-K, acesulfame potassium]
sweetener concentration providing an equivalent sweetness [2]: 0.05%
preferred sweetener concentration to decrease saltiness [3]: 0.05%
Average rating ([3]; Ace-K 0.025 % (w/w), phosphate salt bowel cleanser in water): 1.88
Average rating ([3]; Ace-K 0.05 % (w/w), phosphate salt bowel cleanser in water): 2.63
Average rating ([3]; Ace-K 0.1 % (w/w), phosphate salt bowel cleanser in water): 2.16
Average rating ([3]; Ace-K 0.2 % (w/w), phosphate salt bowel cleanser in water): 2.16
sweetness relative to sucrose / sugar [4]: about 200 times
stability in FLEET PHOSPHO-SODA [1]: acceptable stability
average preference value ([5]; 0.05% sweetener): 2.45

Now from value to compound, other results behind:

stability in FLEET PHOSPHO-SODA [1]: effectiveness diminished over time
Compound: COC(=O)[C@H](Cc1ccccc1)NC(=O)[C@@H](N)CC(=O)O [Aspartame] (HELM PEPTIDE1{D.F.[CO[*:1]]}$$$$V2.0)

stability in FLEET PHOSPHO-SODA [1]: effectiveness diminished over time
Compound: OC[C@H]1O[C@H](O[C@H]2O[C@H](CO)[C@@H](O)[C@H](O)[C@H]2O)[C@H](O)[C@@H](O)[C@@H]1O [Trehalose]

stability in FLEET PHOSPHO-SODA [1]: acceptable stability
Compound: OC[C@H]1O[C@H](O[C@]2(CCl)O[C@H](CCl)[C@@H](O)[C@@H]2O)[C@H](O)[C@@H](O)[C@H]1Cl [Sucralose]
sweetener concentration providing an equivalent sweetness [2]: 0.05%
preferred sweetener concentration to decrease saltiness [3]: 0.05%
Likert preferability comparison of sweeteners (FIG. 2) ([3]; phosphate salt bowel cleanser, scale 1 to 5, 5 most preferred, in words): most preferred
Average rating ([3]; Sucralose 0.0125 % (w/w), 60 mL phosphate salt bowel cleanser in 355 mL water): 2.56
Average rating ([3]; Sucralose 0.025 % (w/w), 60 mL phosphate salt bowel cleanser in 355 mL water): 2.72
Average rating ([3]; Sucralose 0.05 % (w/w), 60 mL phosphate salt bowel cleanser in 355 mL water): 3.22
Average rating ([3]; Sucralose 0.1 % (w/w), 60 mL phosphate salt bowel cleanser in 355 mL water): 2.88
sweetness relative to sucrose / sugar [4]: about 600 times
number of test subjects preferring the sweetened solution ([6]; out of 19 test subjects, 2% NaCl solution with 0.13% Sucralose vs unsweetened): 17
number of test subjects preferring the sweetened cleanser ([6]; out of 20 test subjects, phosphate salt bowel cleanser with 0.13% Sucralose vs unsweetened): 18
Preferred Sucralose Concentration (wt %) ([7]; NaCl Concentration 0.0 wt %): 0.011 wt %
Preferred Sucralose Concentration (wt %) ([7]; NaCl Concentration 0.2 wt %): 0.015 wt %
Preferred Sucralose Concentration (wt %) ([7]; NaCl Concentration 0.4 wt %): 0.019 wt %
Preferred Sucralose Concentration (wt %) ([7]; NaCl Concentration 0.6 wt %): 0.023 wt %
Preferred Sucralose Concentration (wt %) ([7]; NaCl Concentration 0.8 wt %): 0.027 wt %
Preferred Sucralose Concentration (wt %) ([7]; NaCl Concentration 1.0 wt %): 0.031 wt %
Preferred Sucralose Concentration (wt %) ([7]; NaCl Concentration 1.2 wt %): 0.035 wt %
Preferred Sucralose Concentration (wt %) ([7]; NaCl Concentration 1.4 wt %): 0.038 wt %
Preferred Sucralose Concentration (wt %) ([7]; NaCl Concentration 1.6 wt %): 0.042 wt %
Preferred Sucralose Concentration (wt %) ([7]; NaCl Concentration 1.8 wt %): 0.046 wt %
Preferred Sucralose Concentration (wt %) ([7]; NaCl Concentration 2.0 wt %): 0.050 wt %
Preferred Sucralose Concentration (wt %) ([7]; NaCl Concentration 2.2 wt %): 0.054 wt %
Preferred Sucralose Concentration (wt %) ([7]; NaCl Concentration 2.4 wt %): 0.058 wt %
Preferred Sucralose Concentration (wt %) ([7]; NaCl Concentration 2.6 wt %): 0.062 wt %
Preferred Sucralose Concentration (wt %) ([7]; NaCl Concentration 2.8 wt %): 0.066 wt %
Preferred Sucralose Concentration (wt %) ([7]; NaCl Concentration 3.0 wt %): 0.070 wt %
preferred level of Sucralose ([7]; in the 0.4% NaCl solution): 0.02%
preferred level of Sucralose ([7]; in the 2% NaCl solution): 0.05%
preferred level of Sucralose ([7]; in water alone): 0.005%
preference for Sucralose over Saccharin [8]: up to 55%
preference of sweetened PEG based bowel cleanser compared with the unsweetened PEG cleanser ([9]; Sucralose-sweetened NuLytely): approximately 37%
preferred Sucralose concentration ([9]; in the PEG based bowel cleanser): 0.025%
rating of individual test subject ([9]; 0.01 % Sucralose): 4 (7×) and 2 (13×) and 3 (10×)
rating, Average ([9]; 0.01 % Sucralose): 2.80
rating of individual test subject ([9]; 0.025 % Sucralose): 4 (9×) and 2 (12×) and 3 (5×) and 1 (2×) and 5 (2×)
rating, Average ([9]; 0.025 % Sucralose): 2.90
rating of individual test subject ([9]; 0.05 % Sucralose): 2 (11×) and 1 (8×) and 5 (2×) and 4 (7×) and 3 (2×)
rating, Average ([9]; 0.05 % Sucralose): 2.47
average preference value ([5]; 0.05% sweetener): 3.2

stability in FLEET PHOSPHO-SODA [1]: effectiveness diminished over time
Compound: OC[C@H]1O[C@@](CO)(O[C@H]2O[C@H](CO)[C@@H](O)[C@H](O)[C@H]2O)[C@@H](O)[C@@H]1O [Sucrose, reference compound]
sweetener concentration providing an equivalent sweetness [2]: 15%
average preference value ([5]; 15% sweetener): 3.3

From US20070082061A1, “REDUCTION OF SALTINESS WITH SWEETENERS” (priority 2005, published 2007)
